In US9521847B2, “Synergistic weed control from applications of pyridine carboxylic acid herbicides and synthetic auxin herbicides and/or auxin transport inhibitors” (Dow AgroSciences LLC, priority 2014, dated 2016):

What was measured:
[1] = test system: pigweed (AMARE, Amaranthus retroflexus); experiment: Greenhouse postemergence trial, % visual injury; assay type: in vivo
[2] = test system: winter rape (BRSNW, Brassica napus); experiment: Greenhouse postemergence trial, % visual injury; assay type: in vivo; conditions: fluroxypyr-MHE 70 g ae/ha
[3] = test system: common lambsquarters (CHEAL, Chenopodium album L.); experiment: Greenhouse postemergence trial, % visual injury; assay type: in vivo; conditions: Chenopodium album, post-emergence, read-out: % visual injury Obs
[4] = test system: kochia (KCHSC, Kochia scoparia); experiment: Greenhouse postemergence trial, % visual injury; assay type: in vivo; conditions: fluroxypyr-MHE 100 g ae/ha
Protocol: Following the protocol in Example 1, compound 1 and compound 2 were combined with 2,4 D EHE (EC) and applied to kochia (KCHSC, Kochia scoparia) and the phytotoxicity of the herbicidal compositions was measured.
Following the protocol in Example 1, compound 1 (EC) and Compound 2 (SC) were combined with diflufenzopyr and applied to kochia (Kochia scoparia, KCHSC) and the phytotoxicity of the herbicidal composition was measured.

[5] = test system: velvetleaf (Abutilon theophrasti, ABUTH); experiment: Greenhouse postemergence trial, % visual injury; assay type: in vivo
[6] = test system: nutsedge (Cyperus esculentus, CYPES); experiment: Greenhouse postemergence trial, % visual injury; assay type: in vivo; conditions: CYPES, 70 g ae/ha
[7] = test system: sunflower (Helianthus annus, HELAN); experiment: Greenhouse postemergence trial, % visual injury; assay type: in vivo
[8] = test system: wild buckwheat (Polygonum convolvulus, POLCO); experiment: Greenhouse postemergence trial, % visual injury; assay type: in vivo
[9] = test system: Russian thistle (Salsola iberica, SASKR); experiment: Greenhouse postemergence trial, % visual injury; assay type: in vivo; conditions: fluroxypyr-MHE 70 g ae/ha
[10] = test system: wild mustard (Sinapis arvensis, SINAR); experiment: Greenhouse postemergence trial, % visual injury; assay type: in vivo; conditions: fluroxypyr-MHE 70 g ae/ha
[11] = test system: blackgrass (Alopecurus myosuroides, ALOMY); experiment: Greenhouse postemergence trial, % visual injury; assay type: in vivo; conditions: 70 g ae/ha
[12] = test system: wild oat (Avena fatua, VEFA); experiment: Greenhouse postemergence trial, % visual injury; assay type: in vivo; conditions: AVEFA
[13] = test system: large crabgrass (Digitaria sanguinalis, DIGSA); experiment: Greenhouse postemergence trial, % visual injury; assay type: in vivo; conditions: Digitaria sanguinalis, post-emergence, read-out: % visual injury, Obs
[14] = test system: barnyardgrass (Echinochloa crus-galli, ECHCG); experiment: Greenhouse postemergence trial, % visual injury; assay type: in vivo; conditions: fluroxypyr-MHE 100 g ae/ha
[15] = test system: kochia (KCHSC, Kochia scoparia); experiment: Greenhouse postemergence trial, % visual injury; assay type: in vivo
[16] = test system: Canadian thistle (CIRAR, Cirsium arvense); experiment: Greenhouse postemergence trial, % visual injury; conditions: Cirsium arvense, post-emergence;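 further: plants sprayed at second to third true leaf stage, injury scored visually 20-22 d later against solvent-blank sprayed controls, 0 meaning no injury and 100 complete kill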
[17] = test system: spring rape (Brassica napus, BRSNN); experiment: Greenhouse postemergence trial, % visual injury; conditions: Brassica napus, post-emergence
[18] = test system: poinsettia (Euphorbia heterophylla, EPHHL); experiment: Greenhouse postemergence trial, % visual injury; conditions: Euphorbia heterophylla, post-emergence, read-out: % visual injury, Obs
[19] = test system: wild pansy (Viola tricolor, VIOTR); experiment: Greenhouse postemergence trial, % visual injury; conditions: for % visual injury, Obs: VIOTR
[20] = test system: ivyleaf morningglory (Ipomoea hederacea, IPOHE); experiment: Greenhouse postemergence trial, % visual injury
spring barley (HORVS) = experiment: Greenhouse postemergence trial, crop phytotoxicity (% visual injury)
winter wheat (TRZAW) = experiment: as above; conditions: for % visual injury, Obs: TRZAW
maize (ZEAMX) = experiment: as above; conditions: for % visual injury, Obs: ZEAMX
common rice (ORYSA) = experiment: as above
[21] = test system: ivyleaved speedwell (Veronica hederifolia, VERHE); experiment: Greenhouse postemergence trial, % visual injury; assay type: in vivo; conditions: aminocyclopyrachlor 100 g ae/ha
[22] = test system: grain sorghum (Sorghum vulgare, SORVU); experiment: Greenhouse postemergence trial, % visual injury; assay type: in vivo
[23] = test system: common chickweed (Stellaria media, STEME); experiment: Greenhouse postemergence trial, % visual injury; assay type: in vivo; conditions: aminopyralid-TIPA 5 g ae/ha
[24] = read-out: % visual injury (Obs)

CCCCCCC(C)OC(=O)COc1nc(F)c(Cl)c(N)c1Cl (centres unmarked) [Fluroxypyr-MHE, fluroxypyr-meptyl, reference compound]
% visual injury, Obs ([1]; AMARE, 70 g ae/ha): 70% | % visual injury (Obs) ([1]; fluroxypyr-MHE 70 g ae/ha): 50% | % visual injury (Obs) [2]: 95% | pest or weed control at 70 g/ha [3]: 10% | % visual injury (Obs) [4]: 65% | pest or weed control at 70 g/ha ([5]; Abutilon theophrasti, post-emergence, read-out: % visual injury, Obs): 40% | % visual injury (Obs) ([5]; fluroxypyr-MHE 100 g ae/ha): 70% | % visual injury, Obs [6]: 0% | % visual injury (Obs) ([7]; fluroxypyr-MHE 100 g ae/ha): 80% | % visual injury (Obs) ([8]; fluroxypyr-MHE 70 g ae/ha): 75% | % visual injury (Obs) [9]: 95% | % visual injury (Obs) [10]: 85% | % visual injury, Obs [11]: 0% | % visual injury, Obs ([12]; 70 g ae/ha): 0% | pest or weed control at 70 g/ha [13]: 33% | % visual injury (Obs) [14]: 0% | % visual injury (Obs) ([15]; fluroxypyr-MHE 70 g ae/ha): 93% | pest or weed control at 100 g/ha ([16]; read-out: % visual injury (Obs), fluroxypyr-MHE 100 g ae/ha): 60% | pest or weed control at 70 g/ha ([16]; read-out: % visual injury Obs, 70 g ae/ha alone, 20-22 d): 10% | plant injury at 100 g/ha [17, 24]: 85% | plant injury at 70 g/ha ([17]; read-out: % visual injury, Obs): 15% | pest or weed control at 70 g/ha [18]: 18% | % visual injury, Obs ([19]; 70 g ae/ha): 80% | % visual injury (Obs) ([19]; fluroxypyr-MHE 100 g ae/ha): 80% | pest or weed control at 70 g/ha ([20]; Ipomoea, post-emergence, read-out: % visual injury, Obs): 80% | % visual injury Obs (spring barley (HORVS); crop, 70 g ae/ha alone, 20-22 d): 20% | % visual injury (Obs) (spring barley (HORVS); fluroxypyr-MHE 70 g ae/ha): 0% | % visual injury, Obs (winter wheat (TRZAW); 70 g ae/ha): 0% | % visual injury (Obs) (winter wheat (TRZAW); fluroxypyr-MHE 70 g ae/ha): 0% | % visual injury (Obs) (winter wheat (TRZAW); fluroxypyr-MHE 100 g ae/ha): 0% | % visual injury, Obs (maize (ZEAMX); 70 g ae/ha): 0% | % visual injury (Obs) (maize (ZEAMX); fluroxypyr-MHE 100 g ae/ha): 0% | % visual injury (Obs) (common rice (ORYSA); fluroxypyr-MHE 100 g ae/ha): 0%

Nc1nc(C2CC2)nc(C(=O)O)c1Cl [aminocyclopyrachlor, reference compound]
% visual injury (Obs) [21]: 75%

Nc1cc(Cl)nc(C(=O)O)c1Cl [aminopyralid-TIPA, aminopyralid-triisopropanolammonium, reference compound]
% visual injury (Obs) ([7]; aminopyralid-TIPA 5 g ae/ha): 60% | % visual injury (Obs) ([8]; aminopyralid-TIPA 5 g ae/ha): 65% | % visual injury, Obs ([22]; SORVU, 5 g ae/ha): 5% | % visual injury (Obs) ([22]; aminopyralid-TIPA 5 g ae/ha): 0% | % visual injury (Obs) [23]: 60% | % visual injury, Obs ([12]; 5 g ae/ha): 0% | pest or weed control at 5 g/ha [13]: 5% | % visual injury (Obs) ([15]; aminopyralid-TIPA 5 g ae/ha): 10% | pest or weed control at 5 g/ha ([16]; read-out: % visual injury (Obs), aminopyralid-TIPA 5 g ae/ha): 60% | plant injury at 5 g/ha [17, 24]: 10% | pest or weed control at 5 g/ha [18]: 18% | % visual injury, Obs ([19]; 5 g ae/ha): 48% | % visual injury (Obs) ([19]; aminopyralid-TIPA 5 g ae/ha): 10% | % visual injury (Obs) ([20]; aminopyralid-TIPA 5 g ae/ha): 60% | % visual injury, Obs (winter wheat (TRZAW); 5 g ae/ha): 0% | % visual injury (Obs) (winter wheat (TRZAW); aminopyralid-TIPA 5 g ae/ha): 0% | % visual injury, Obs (maize (ZEAMX); 5 g ae/ha): 3% | % visual injury (Obs) (maize (ZEAMX); aminopyralid-TIPA 5 g ae/ha): 0% | % visual injury (Obs) (common rice (ORYSA); aminopyralid-TIPA 5 g ae/ha): 0%
